Where “and” joins values, the source holds several entries; their conditions need not be identical. Equal entries are not always repeated.
What was measured:
[1] = system: mouse ear eczema model (atopic dermatitis); test: Mouse ear eczema model (calcipotriol-induced): SCORAD of skin damage and overall therapeutic effect; format: in vivo, BALB/c mice; conditions: 0.15% cream for external use; result is for model group relative to the treated groups
Description: (§1) (1) Preparation method of a JAK-PROTAC cream: the same as in Example 1.
(§2) (2) Positive therapeutic drug: a 0.050% dexamethasone acetate cream (manufacturer: Shanghai Skin Disease Hospital).
(§3) (3) Blank matrix: a matrix component produced after the active ingredient JAK-PROTAC was removed from the cream.
(§4) (4) Molding agent: solution of calcipotriol in ethanol (manufacturer: MACKLIN).
(§5) (1) The mice were randomly divided into a blank control group (6 mice) (Control), a model group (6 mice) (Model), a positive drug group (6 mice) (Positive), a Compound 1-treating group (0.15% JAK-PROTAC cream 1 for external use) (6 mice) (Treat 1), and a Compound 2-treating group (0.15% JAK-PROTAC cream 2 for external use) (6 mice) (Treat 2).
(2) Molding was conducted in the following manner: […]
(1) The photographing was conducted every day. The severity of skin damage in an ear application region was evaluated through SCORAD for mice. […] Each symptom was scored as 0 to 3 depending on the severity of a skin damage: asymptomatic: 0, mild: 1, moderate: 2, and severe: 3. […]

[2] = system: RAW 264.7 cells; test: NO content assay in LPS+IFN-γ induced RAW 264.7 macrophage inflammatory model; format: cell-based; conditions: for NO level versus LPS+IFN-γ model group: 0.05, 0.1, 0.2 g/mL (so in the source), 0.4 and 0.8 μg/mL, 24 h, LPS 0.5 μg/mL + IFN-γ 2 ng/mL; for Inhibition of inflammation: concentration range of 0.05 μg/mL to 0.8 μg/mL; for Concentration of optimal anti-inflammatory effect: tested 0.05 μg/mL to 0.8 μg/mL
Experimental: (1) Reagents: compound 1: a compound shown by Compound 1 in formula (I); compound 2: a compound shown by Compound 2 in Formula (I); DMEM high-glucose medium: Wuhan Pricella Biotechnology Co., Ltd.; South American FBS and trypsin: Gibco, USA; penicillin-streptomycin: Hyclone, USA; and nitric oxide (NO) assay kit: Beyotime.
(2) Instruments: CO2 incubator: HERA cell 240; and microplate reader: Thermo Fisher Scientific, USA.
Induction of an RAW 264.7 macrophage inflammatory model with lipopolysaccharide (LPS) and interferon-gamma (IFN-γ): RAW 264.7 cells in a logarithmic growth phase were taken and inoculated in a 96-well cell culture plate at 20×10^3 cells/well, and cultured for 24 h until the cells were adherent. Ablank control group of 0 μg/mL, a model group of 0.5 μg/mL LPS+2 ng/mL IFN-γ, and experimental groups of compounds 1 and 2 at concentrations of 0.05 μg/mL, 0.1 μg/mL, 0.2 μg/mL, 0.4 μg/mL, and 0.8 μg/mL were set. Three replicate wells were set for each group. In the blank control group, cells were incubated with serum-free DMEM. In the LPS+IFN-γ model group, cells were incubated with serum-free DMEM. After 24 h of incubation, morphological changes of cells were observed, and a concentration of NO was determined according to instructions of the NO assay kit.
The data of the present disclosure was processed with the Excel and Graphpad software. The experimental data were tested by one-way ANOVA. The post-hoc multiple comparison was conducted with the LSD. P<0.05 indicated a significant difference.

[3] = system: mouse ear eczema model (spleen); test: Mouse ear eczema model: body weight, spleen weight and spleen index; format: in vivo, BALB/c mice; conditions: for Ranking in terms of spleen weight and spleen index: AD model, positive drug, Compound 1 and Compound 2 groups; for Therapeutic effect for AD / Therapeutic effect versus the positive drug: atopic dermatitis mouse models; for Therapeutic effect versus the positive drug: positive drug = 0.050% dexamethasone acetate cream; for Spleen weights and spleen indexes versus blank control group: compared with the blank control group; for Spleen weight, mean value: group mean; for Spleen weight, mean value / Spleen weight: day 11, wet weight; for Spleen weight: individual mice
Description: as §1, §2, §3, §4, §5
(§6) (2) Molding was conducted in the following manner:
(§7) A. On day 0 to day 7 of the modeling: At 9 a.m., the blank control group was administered with the cream matrix, the model group was administered with the molding agent, the positive group was administered with the molding agent, the Compound 1-treating group was administered with the molding agent, and the Compound 2-treating group was administered with the molding agent. At 5 p.m., the blank control group was not treated, the model group was administered with the cream matrix, the positive group was administered with the dexamethasone acetate cream, the Compound 1-treating group was administered with the JAK-PROTAC cream 1, and the Compound 2-treating group was administered with the JAK-PROTAC cream 2.
as §7, with “B.” for “A.”, “8” for “0”, “10” for “7”, “modeling, at” for “modeling: At”, “not treated,” for “administered with the molding agent,”, “not treated.” for “administered with the molding agent.”
(§8) C. On day 11 of the modeling: At 9 a.m., the blank control group was administered with the cream matrix, the model group was not treated, the positive group was not treated, the Compound 1-treating group was not treated, and the Compound 2-treating group was not treated. At 1 p.m., the mice were sacrificed through cervical dislocation, and the spleen and two ears of each mouse were collected.
(3) Spleen index testing:
After the mice were sacrificed, a spleen tissue was collected, dried with a filter paper to remove blood stains on a surface, and weighed for a wet weight. A spleen index was calculated as follows: spleen index=10,000×spleen weight (g)/body weight (g).
(§9) (2) A body weight and thicknesses of two ears of each mouse were recorded daily.
(3) After the experiment was completed, a spleen index of each mouse was calculated.
(§10) The data of the present disclosure was processed with the Excel and GraphPad software. The experimental data was tested by one-way ANOVA. The post-hoc multiple comparison was conducted with the least significant difference (LSD). P<0.05 indicated a significant difference.

[4] = system: mouse ear eczema model (ear thickness); test: Mouse ear eczema model: ear thickness; format: in vivo, BALB/c mice; conditions: for Ear thickness, mean value: group mean; for Ear thickness: individual mice, two ears; for Ear thickness difference among Compound 1-, Compound 2-treating and positive drug groups / Ear thickness of model group versus treated groups: after the modeling; for Ear thickness of model group versus treated groups: result is for model group relative to the treated groups
Description: as §1, §2, §3, §4, §5, §6, §7
as §7, with “B.” for “A.”, “8” for “0”, “10” for “7”, “modeling, at” for “modeling: At”, “not treated,” for “administered with the molding agent,”, “not treated.” for “administered with the molding agent.”
as §8, §9, §10

[5] = system: serum thymic stromal lymphopoietin (TSLP); test: Mouse ear eczema model: serum TSLP by enzyme-linked immunosorbent assay; format: in vivo, BALB/c mice; conditions: for Serum TSLP content versus blank group: compared with the blank group; for Serum TSLP content versus model group: compared with the model group; for Reduction level of serum TSLP content versus positive group: compared with the positive group (dexamethasone acetate cream)
Description: as §1, §2, §3, §4, §5, §6, §7
as §7, with “B.” for “A.”, “8” for “0”, “10” for “7”, “modeling, at” for “modeling: At”, “not treated,” for “administered with the molding agent,”, “not treated.” for “administered with the molding agent.”
as §8
(4) The TSLP content in serum was detected by enzyme-linked immunosorbent assay.
as §10

[6] = Day0, cream for external use (JAK-PROTAC 0.15%, dexamethasone acetate 0.050%)
[7] = Day0 of modeling, cream for external use (JAK-PROTAC 0.15%, dexamethasone acetate 0.050%)

| SMILES | Erythema, scale, and infiltration scores and total scores (SCORAD) of model group versus treated groups [1] | NO level versus LPS+IFN-γ model group [2] | Inhibition of inflammation [2] | Concentration of optimal anti-inflammatory effect [2] [µg/mL] | Ranking in terms of spleen weight and spleen index [3] | Therapeutic effect for AD [3] | Therapeutic effect versus the positive drug [3] | Spleen weights and spleen indexes versus blank control group [3] | Spleen weight, mean value [3] [g] | Spleen weight [3] | Ear thickness, mean value [4, 6] [mm] | Ear thickness [4, 7] | Ear thickness, mean value ([4]; Day 1) [mm] | Ear thickness ([4]; Day 1) | Ear thickness, mean value ([4]; Day2) [mm] | Ear thickness ([4]; Day2) | Ear thickness, mean value ([4]; Day3) [mm] | Ear thickness ([4]; Day3) | Ear thickness, mean value ([4]; Day4) [mm] | Ear thickness ([4]; Day4) | further results |
| --- | --- | --- | --- | --- | --- | --- | --- | --- | --- | --- | --- | --- | --- | --- | --- | --- | --- | --- | --- | --- | --- |
| N#CC[C@H](C1CCCC1)n1cc(-c2nc(Nc3ccc(C(=O)NCCCCNc4cccc5c4C(=O)N(C4CCC(=O)NC4=O)C5=O)cc3)nc3[nH]ccc23)cn1 (stereo partly drawn) [Compound 1] | significantly higher than the respective scores in the Compound 1- and Compound 2-treating groups (P<0.05) | reduced | could effectively inhibit the inflammation | 0.4 | the Compound 1-treating group>the Compound 2-treating group>the positive drug group>the AD model group (P<0.05) | had a therapeutic effect for AD, could improve the inflammatory responses in atopic dermatitis mouse models | exhibited a better therapeutic effect than the positive drug | significantly reduced (P<0.05) | 0.0862 | 0.0798 g and 0.0934 g and 0.0855 g | 0.24 | 0.23 mm (2×) and 0.24 mm (3×) and 0.26 mm and 0.25 mm (2×) | 0.27 | 0.26 mm (5×) and 0.29 mm and 0.28 mm and 0.27 mm | 0.28 | 0.30 mm (3×) and 0.27 mm (3×) and 0.28 mm and 0.24 mm | 0.28 | 0.30 mm and 0.31 mm and 0.26 mm and 0.28 mm and 0.27 mm (2×) and 0.29 mm and 0.24 mm | 0.28 | 0.27 mm (2×) and 0.33 mm and 0.31 mm and 0.30 mm and 0.25 mm (2×) and 0.28 mm | Ear thickness, mean value ([4]; Day5): 0.29 mm; Ear thickness ([4]; Day5): 0.32 mm (3×) and 0.29 mm and 0.28 mm (2×) and 0.30 mm and 0.24 mm; Ear thickness, mean value ([4]; Day6): 0.32 mm; Ear thickness ([4]; Day6): 0.34 mm and 0.35 mm (2×) and 0.36 mm and 0.31 mm and 0.30 mm and 0.25 mm and 0.33 mm; Ear thickness, mean value ([4]; Day7): 0.33 mm; Ear thickness ([4]; Day7): 0.33 mm (2×) and 0.32 mm and 0.37 mm and 0.35 mm and 0.36 mm and 0.26 mm and 0.34 mm; Ear thickness, mean value ([4]; Day8): 0.32 mm; Ear thickness ([4]; Day8): 0.30 mm and 0.33 mm and 0.32 mm (2×) and 0.35 mm and 0.37 mm and 0.24 mm and 0.34 mm; Ear thickness difference among Compound 1-, Compound 2-treating and positive drug groups [4]: no significant difference among the Compound 1- and Compound 2-treating groups and the positive drug group (P>0.05); Ear thickness of model group versus treated groups [4]: significantly larger than ear thicknesses of the Compound 1- and Compound 2-treating groups, the positive drug group, and the blank control group (P<0.05); Serum TSLP content versus blank group [5]: increased compared with the blank group (P<0.01); Serum TSLP content versus model group [5]: significantly reduced compared with the model group (P<0.01); Reduction level of serum TSLP content versus positive group [5]: greater than a reduction level of a TSLP content in the positive group (P<0.01) |
| CCS(=O)(=O)N1CC(CC#N)(n2cc(-c3nc(Nc4ccc(C(=O)NCCCCNc5cccc6c5C(=O)N(C5CCC(=O)NC5=O)C6=O)cc4)nc4[nH]ccc34)cn2)C1 (stereo not drawn) [Compound 2] | significantly higher than the respective scores in the Compound 1- and Compound 2-treating groups (P<0.05) | reduced | could effectively inhibit the inflammation | 0.4 | the Compound 1-treating group>the Compound 2-treating group>the positive drug group>the AD model group (P<0.05) | had a therapeutic effect for AD, could improve the inflammatory responses in atopic dermatitis mouse models | exhibited a better therapeutic effect than the positive drug | significantly reduced (P<0.05) | 0.0732 | 0.0749 g and 0.0739 g and 0.0708 g | 0.22 | 0.22 mm (3×) and 0.24 mm (2×) and 0.21 mm (3×) | 0.26 | 0.28 mm and 0.29 mm and 0.24 mm (2×) and 0.25 mm (3×) and 0.26 mm | 0.25 | 0.23 mm (3×) and 0.29 mm and 0.21 mm and 0.26 mm (2×) and 0.25 mm | 0.26 | 0.26 mm (5×) and 0.27 mm and 0.24 mm and 0.25 mm | 0.27 | 0.29 mm and 0.27 mm and 0.26 mm (2×) and 0.28 mm (2×) and 0.25 mm and 0.24 mm | Ear thickness, mean value ([4]; Day5): 0.29 mm; Ear thickness ([4]; Day5): 0.29 mm (3×) and 0.30 mm (2×) and 0.28 mm and 0.31 mm and 0.26 mm; Ear thickness, mean value ([4]; Day6): 0.32 mm; Ear thickness ([4]; Day6): 0.32 mm (2×) and 0.33 mm (2×) and 0.31 mm (2×) and 0.30 mm (2×); Ear thickness, mean value ([4]; Day7): 0.35 mm; Ear thickness ([4]; Day7): 0.34 mm (2×) and 0.36 mm (5×) and 0.35 mm; Ear thickness, mean value ([4]; Day8): 0.35 mm; Ear thickness ([4]; Day8): 0.34 mm (4×) and 0.36 mm (2×) and 0.39 mm and 0.33 mm; Ear thickness difference among Compound 1-, Compound 2-treating and positive drug groups [4]: no significant difference among the Compound 1- and Compound 2-treating groups and the positive drug group (P>0.05); Ear thickness of model group versus treated groups [4]: significantly larger than ear thicknesses of the Compound 1- and Compound 2-treating groups, the positive drug group, and the blank control group (P<0.05); Serum TSLP content versus blank group [5]: increased compared with the blank group (P<0.01); Serum TSLP content versus model group [5]: significantly reduced compared with the model group (P<0.01); Reduction level of serum TSLP content versus positive group [5]: greater than a reduction level of a TSLP content in the positive group (P<0.01) |

From US20260365655A1, “NEW USE OF JANUS KINASE (JAK)-DEGRADING AGENT BASED ON PROTEOLYSIS TARGETING CHIMERA (PROTAC)” (SHANGHAI SKIN DISEASE HOSPITAL, priority 2022, published 2026)
